30 compounds from patent US20040006094A1, “4-pyrimidinamine derivatives, pharmaceutical compositions and related methods” (priority 2000, published 2004) can be followed below.

Assay [1] concerns differentiated P19 neurons. Briefly: Drug screening using differentiated P19 cell assay (neuroprotection against 3 mM glutamate and 1 mM glycine). To be noted: dose response 0.005-3 μM, >1 = no observed maximum within highest dose tested (3 μM). Type of assay: cell-based, murine. As to the method: Commercially available chemical libraries (BioFocus PLC, UK) were screened using the methods described herein. The stock concentration of the compounds was about 400 μM in DMSO. The concentration of compounds used in the primary screen was 1 μM. […] Columns 4-11 received compounds at the following final concentrations (μM): 3, 1.2, 0.48, 0.192, 0.077, 0.031, 0.012 and 0.005. Each row contained a different compound for confirmation. Only rows B-G received compounds, and rows A and H remained untreated.
Only the 4-pyrimidinamines are the subject of this invention, although limited data for 2-pyridinamines are presented as well. “% Inh” indicates the percentage of control cells surviving after 24 hours, and represents the neuroprotective effect of the compounds screened at 1 micromolar concentration. IC50 relate to data from dose response experiments. […] ND refers to compounds not tested in dose-response experiments.
The representative compounds listed in Tables IX<X, XI and XII were tested according to the procedure described in Example 5 with results as listed in Table XIII. Unless otherwise noted, molecular weights were measure on a Hewlitt-Packard Series 1050 Chemical Ionization mass spectrometer.

Assay [2] deals with Male Wistar rats. The assay is described as follows: Transient model of cerebral ischemia in rats (lesion volume). The format is in vivo, rat. To be noted: i.v., 1 hr post ischemia onset, 24 h, average of 12. As to the method: Male Wistar rats (Iffa Crédo, France), weighing 250-300 g, were housed 2 per cage under a light-dark cycle of 12 hr-12 hr (light on at 7:00 a.m., off at 7:00 p.m.) at a room temperature of 21±2° C., with 50±15% humidity, for a minimum of 5 days before the experiments. During this time, the rats had free access to commercial rat chow (Trouw Nutrition France, Vigny, France, ref. 811002) and tap water.
The animals were anaesthetized with 5% halothane in air for induction, then 1-2% halothane during surgery. The rat's body temperature was maintained at 37° C. with a heating pad. A 2 cm incision was made at the center of the neck and the right common carotid artery (CCA), external carotid artery (ECA) and internal carotid artery (ICA) were exposed under an operating microscope. The ICA was further dissected to identify the pterygopalatine artery (PA) branch and the intracranial ICA branch. The CCA was ligated. A 3-0 silk suture was tied at the origin of the ECA and ligated. A catheter (id=0.58 mm) was introduced into the CCA through a small puncture and advanced to the intracranial branch of the ICA. A 4-0 surgical nylon suture was introduced into the catheter. A length of approximately 19 mm of nylon suture was gently advanced from the CCA into the lumen of the ICA until the suture blocked the origin of the MCA. The suture was sealed into the catheter by heat, leaving 1 cm of catheter protruding so the suture could be withdrawn to allow reperfusion. The incision was closed using skin clips. Anaesthesia was then terminated and the animals were placed under heat lamps until recovery from anaesthesia. The rats awakened 10-15 min later. After 2 hr of ischemia, reperfusion was performed by withdrawal of the suture until the tip cleared the ICA lumen. Vehicle or test compound was administered intraperitoneally (i.p.) or intravenously (i.v.) at 1 hr post ischemia onset.
24 h after the onset of occlusion, the rats were killed by decapitation. The brains were immediately removed, frozen in isopentane and stored at −20° C. The brains were then cut in 20 μm thick sections in a cryocut. Every 20th slice was used to measure infarct area. The sections were stained with cresyl violet and the areas of infarct in the striatum and cortex were determined by planimetry using an image analysis software (Image, NIH) after digitalization of the section images.
Following the procedure described above, MK-801, compound #46 and compound #264 (as listed in the Tables herein) were evaluated for neuroprotective effects in rats with results as listed in Table VIII. The data represent average lesion volume in mm^3 for 12 measurements. Vehicle used was 15% solutol in 5% dextrose.

Assay [3] has as its system P19 neurons. Briefly: P19 neuron viability / toxicity by Alamar blue fluorescence. The format is cell-based, murine. As to the method: Alamar Blue fluorescence, an indicator of cell viability, was used to determine cell viability after an NMDA-induced cytotoxic insult. […] However, since raw fluorescence counts vary from experiment to experiment, FIGS. 2A, 2B, and 2C are expressed as a percent of control.
Glutamate toxicity dose response in the presence of a constant 1 mM glycine concentration was measured in the differentiated P19 neurons. The curve generated through the data points is the average of 6 separate dose response curves. Data points are represented as the percent of control cells±standard error. % control=(([Glutamate]exp−[Glutamate]max)/(Controlvehicle−[Glutamate]max))×100.
The second method for measuring cell viability was a plate reader method. Cells plated into black 96 well plates (Packard viewplates) were loaded with 5% Alamar Blue dye (Biosource International). Alamar Blue is a dye that takes advantage of mitochondrial reductases to convert non-fluorescent resazurin to fluorescent resorufin (excitation 535 nm, emission 580 nm). Baseline fluorescence counts were read at room temperature in a Wallac plate reader immediately after addition of Alamar blue. Fluorescence counts of cell viability were taken the same way after 1 hour incubation at 37° C. Fluorescence was expressed as a percent of control, untreated cells after subtraction of background fluorescence. Live/dead cells were confirmed visually with a light microscope.
Cells were then assayed for Alamar blue fluorescence. The curve generated through the data points is the average of 3 separate dose response curves. Data points are represented as percent of control cells±standard error.
For orientation: Alamar Blue is a resazurin reagent that responds to reducing activity.

Bounds are passed on as bounds.

By IC50 is commonly meant the midpoint of a concentration-inhibition curve. Take `CCn1c2ccccc2c2ccc(Nc3cc(-c4cc(OC)c(OC)c(OC)c4)ncn3)cc21` [Cmpd 152]: the IC50 in assay [1] is more than 1 µM. Turning to `CN(C)c1ccc(Nc2cc(-c3ccc(C#N)cc3)ncn2)cc1` [Cmpd 62], the IC50 in assay [1] (Mus musculus, Neuron) was more than 1 µM.

In assay [1] (Mus musculus, Neuron), `CCN(CCO)c1ccc(Nc2cc(-c3ccc(C#N)cc3)ncn2)cc1` [Cmpd 64] registered an IC50 of more than 1 µM.

In assay [1] (Mus musculus, Neuron), `CCN(CCO)c1ccc(Nc2cc(-c3cccc(-c4ccccc4)c3)ncn2)cc1` [Cmpd 46, ethanol, 2-[[4-[(6-[1,1′-biphenyl]-3-yl-4-pyrimidinyl)amino]phenyl]ethylamino]-] yielded a concentration for half-maximal inhibition (IC50) of 0.07 µM. Further, in assay [2] (0.6 mg/kg), the “Cortex + Striatum Vol. (mm^3)” value is 326.6 ± 26.0 mm^3, the “Cortex Vol. (mm^3)” value was 247.6 ± 24.8 mm^3 and the “Striatum Vol. (mm^3)” value came to 79.1 ± 3.0 mm^3. For the same compound, in assay [2] (3 mg/kg), the “Cortex + Striatum Vol. (mm^3)” value stood at 290.8 ± 28.1 mm^3, the “Cortex Vol. (mm^3)” value turned out to be 214.7 ± 26.6 mm^3 and the “Striatum Vol. (mm^3)” value is reported as 76.1 ± 2.8 mm^3. For the compound `NCC(=O)O` [Glycine], the “effect on basal P19 neuron viability, substance alone” value in assay [3] (no inducer of toxicity (U0126: 10 μM)) was “did not affect P19 neuron viability”. For `CCN(CCO)c1ccc(Nc2cc(-c3cnc(OCc4ccccc4)nc3OCc3ccccc3)ncn2)cc1` [Cmpd 58, 2-{[4-(2′,4′-is-benzyloxy-[4,5′]bipyrimidinyl-6-ylamino)-phenyl]-ethyl-amino}-ethanol], the half-maximal inhibitory concentration (IC50) in assay [1] (Mus musculus, Neuron) turned out to be 0.39 µM. For the compound `CCN(CCO)c1ccc(Nc2cc(-c3ccc4ccccc4c3)ncn2)cc1` [Cmpd 45], the IC50 in assay [1] stood at 0.57 µM. `CCN(CCO)c1ccc(Nc2cc(-c3ccsc3)ncn2)cc1` [Cmpd 55] gave an IC50 in assay [1] (Mus musculus, Neuron) of 0.86 µM. The same measure, in the same setting: to `CCN(CCO)c1ccc(Nc2cc(-c3ccc(CNC(=O)OC(C)(C)C)cc3)ncn2)cc1` [Cmpd 147] belongs 1.09 µM.

In assay [1] (Mus musculus, Neuron), `CCN(CCO)c1ccc(Nc2cc(-c3cc4ccccc4s3)ncn2)cc1` [Cmpd 54, ethanol, 2-[[4-[(6-benzo[b]thien-2-yl-4-pyrimidinyl)amino]phenyl]ethylamino]-] had an IC50 of 0.24 µM. Same read-out and setting: to `CN(C)c1ccc(Nc2cc(-c3cccc4ccccc34)ncn2)cc1` [Cmpd 61] belongs more than 1 µM.

In the case of `CN(C)c1ccc(Nc2cc(-c3ccc(OCc4ccccc4)cc3)ncn2)cc1` [Cmpd 42, 1,4-benzenediamine, N^1,N^1-dimethyl-N^4-[6-[4-(phenylmethoxy)phenyl]-4-pyrimidinyl]-], the IC50 in assay [1] was 0.2 µM.

In assay [1], `CN(C)c1ccc(Nc2cc(-c3cc4ccccc4o3)ncn2)cc1` [Cmpd 59] gave an IC50 of 0.48 µM.

`CCN(CCO)c1ccc(Nc2cc(-c3cccc(N(C)C)c3)ncn2)cc1` [Cmpd 148] yielded a half-maximal inhibitory concentration (IC50) in assay [1] (Mus musculus, Neuron) of 0.47 µM.

Compound `CCN(CCO)c1ccc(Nc2cc(C3C=C4C=CC=CC4O3)ncn2)cc1` (stereo not shown) [Cmpd 53] displayed an IC50 in assay [1] (Mus musculus, Neuron) of 0.54 µM. Still for that read-out and setting: to `CN(C)c1ccc(Nc2cc(-c3cc(C(F)(F)F)cc(C(F)(F)F)c3)ncn2)cc1` [Cmpd 44, 1,4-benzenediamine, N^1-[6-[3,5-bis(trifluoromethyl)phenyl]-4-pyrimidinyl]-N^4,N^4-dimethyl-] belongs 0.26 µM; to `CCN(CCO)c1ccc(Nc2cc(-c3ccc(OC(F)(F)F)cc3)ncn2)cc1` [Cmpd 51, ethanol, 2-[ethyl[4-[[6-[4-(trifluoromethoxy)phenyl]-4-pyrimidinyl]amino]phenyl]amino]-], 0.23 µM. `CN(C)c1ccc(Nc2cc(-c3ccc4ccccc4c3)ncn2)cc1` [Cmpd 41] registered an IC50 in assay [1] of 0.54 µM. `CN(C)c1ccc(Nc2cc(-c3ccccc3Oc3ccccc3)ncn2)cc1` [Cmpd 63] came in with an IC50 in assay [1] (Mus musculus, Neuron) of more than 1 µM.

On to `CCN(CCO)c1ccc(Nc2cc(-c3cccc([N+](=O)[O-])c3)ncn2)cc1` [Cmpd 49], for which, in assay [1] (Mus musculus, Neuron), 0.55 µM corresponded to half-maximal inhibition (IC50). Broadly, the EC50 is the concentration needed to bring the measured effect to its halfway point. As for `N[C@@H](CCC(=O)O)C(=O)O` [Glutamate], in assay [3] (3 mM glutamate and 1 mM glycine for 24 hours), the “reduction in Alamar blue fluorescence” value was 60%. Further, the EC50 in assay [3] (constant 1 mM glycine, 24 hours, average of 6 curves, read-out: Glutamate toxicity EC50) stood at 8100 nM. `CCN(CCO)c1ccc(Nc2cc(-c3ccc(SC)cc3)ncn2)cc1` [Cmpd 50] gave an IC50 in assay [1] (Mus musculus, Neuron) of 0.41 µM. As to `CCN(CCO)c1ccc(Nc2cc(-c3ccccc3Oc3ccccc3)ncn2)cc1` [Cmpd 56], half-maximal inhibition in assay [1] (Mus musculus, Neuron) (IC50) required 0.57 µM.

Consider `CN(C)c1ccc(Nc2cc(-c3ccc(N(C)C)cc3)ncn2)cc1` [Cmpd 149], for which the half-maximal inhibitory concentration (IC50) in assay [1] (Mus musculus, Neuron) came out at 0.33 µM. The same measure, in the same setting: to `CN(C)c1ccc(Nc2cc(-c3cccc(-c4ccccc4)c3)ncn2)cc1` [Cmpd 43, 1,4-benzenediamine, N^1-(6-[1,1′-biphenyl]-3-yl-4-pyrimidinyl)-N^4,N^4-dimethyl-] belongs 0.22 µM. Regarding `CCn1c2ccccc2c2ccc(Nc3cc(-c4ccc(OC)c(OC)c4)ncn3)cc21` [Cmpd 151], the IC50 in assay [1] is more than 1 µM.

As to `CCn1c2ccccc2c2ccc(Nc3cc(-c4ccc(N5CCN(C)CC5)cc4)ncn3)cc21` [Cmpd 154], half-maximal inhibition in assay [1] (IC50) required 0.55 µM. Compound `Oc1ccc(-c2cc(Nc3ccc(N4CCN(c5ccccc5)CC4)cc3)ncn2)cc1` [Cmpd 65] returned an IC50 in assay [1] (Mus musculus, Neuron) of more than 1 µM.

Compound `CCN(CCO)c1ccc(Nc2cc(-c3cc(C(F)(F)F)cc(C(F)(F)F)c3)ncn2)cc1` [Cmpd 48] registered an IC50 in assay [1] of 0.48 µM. In assay [1] (Mus musculus, Neuron), `CCN(CCO)c1ccc(Nc2cc(-c3ccc(-c4ccccc4)cc3)ncn2)cc1` [Cmpd 47] displayed an IC50 of 0.49 µM.
